According to patent publication US8158628B2, “Sulfonylated 1,2,3,4-tetrahydropyrrolo[1,2-a]pyrazine compounds and their use as pharmaceuticals” (Gruenenthal GmbH, priority 2009, dated 2012):

molecular target: T1, B1R of the rat (Rattus norvegicus, UniProt P97583); experiment: FLIPR Ca2+ functional assay, B1R antagonism, rat B1R in CHO K1 cells; type: cell-based; details: test substance 10 μM; rB1R CHO K1 cells; agonist Des-Arg9 bradykinin at EC80; % of maximum achievable inhibition
T1 construct: expressed in transfected cells; host or cells: CHO K1 cells (Chinese hamster ovary), stably transfected
T1 sequence (P97583 1-337): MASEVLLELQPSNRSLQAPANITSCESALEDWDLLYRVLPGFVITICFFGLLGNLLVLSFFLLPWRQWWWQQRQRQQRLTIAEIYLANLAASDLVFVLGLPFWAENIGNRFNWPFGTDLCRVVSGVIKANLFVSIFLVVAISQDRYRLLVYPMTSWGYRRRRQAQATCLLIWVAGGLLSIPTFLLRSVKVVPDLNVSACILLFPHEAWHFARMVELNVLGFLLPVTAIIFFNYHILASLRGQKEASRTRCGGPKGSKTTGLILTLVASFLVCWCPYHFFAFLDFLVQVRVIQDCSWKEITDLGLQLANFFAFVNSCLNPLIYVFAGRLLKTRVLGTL
How it was run: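 Stably transfected CHO K1 cells loaded with Fluo-4; Ca2+ fluorescence read on FLIPR (ex 488/em 540 nm). Compound preincubated 10-20 min, then agonist at EC80: Lys-Des-Arg9 bradykinin (human) or Des-Arg9 bradykinin (rat). % inhibition vs maximal inhibition; IC50 from concentration series, n=2-3, N>=2.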

Compound	inhibition at 10 µM
O=C(CC1c2cccn2CCN1S(=O)(=O)c1ccccc1)N1CCN(Cc2ccccc2F)CC1 (stereo not shown) [Example 234, 2-[2-(Benzenesulfonyl)-1,2,3,4-tetrahydro-pyrrolo[1,2-a]pyrazin-1-yl]-1-[4-[(2-fluorophenyl)-methyl]-piperazin-1-yl]-ethanone]	17.3%
O=C(CC1c2cccn2CCN1S(=O)(=O)c1ccccc1)NCC1CCCN(Cc2ccccc2)C1 (stereo not shown) [Example 235, 2-[2-(Benzenesulfonyl)-1,2,3,4-tetrahydro-pyrrolo[1,2-a]pyrazin-1-yl]-N-[(1-benzyl-piperidin-3-yl)-methyl]-acetamide]	-14%
Cc1cc(C)c(CN2CCN(C(=O)CC3c4cccn4CCN3S(=O)(=O)c3cccc(C(F)(F)F)c3)CC2)c(C)c1 (stereo not shown) [Example 236, 2-[2-[[3-(Trifluoromethyl)phenyl]sulfonyl]-1,2,3,4-tetrahydro-pyrrolo[1,2-a]pyrazin-1-yl]-1-[4-[(2,4,6-trimethyl-phenyl)-methyl]-piperazin-1-yl]-ethanone]	9.23%
COc1ccc(N2CCN(C(=O)CC3c4cccn4CCN3S(=O)(=O)c3ccc(C(F)(F)F)cc3Cl)CC2)cc1 (stereo not shown) [Example 237, 2-[2-[[2-Chloro-4-(trifluoromethyl)-phenyl]sulfonyl]-1,2,3,4-tetrahydro-pyrrolo[1,2-a]pyrazin-1-yl]-1-[4-(4-methoxyphenyl)-piperazin-1-yl]-ethanone]	9.45%
COc1cc(C)c(S(=O)(=O)N2CCn3cccc3C2CC(=O)N2CCN(c3ccc(Cl)c(Cl)c3)CC2)c(C)c1 (stereo not shown) [Example 238, 1-[4-(3,4-Dichlorophenyl)-piperazin-1-yl]-2-[2-[(4-methoxy-2,6-dimethyl-phenyl)sulfonyl]-1,2,3,4-tetrahydro-pyrrolo[1,2-a]pyrazin-1-yl]-ethanone]	17.6%
COc1cc(C)c(S(=O)(=O)N2CCn3cccc3C2CC(=O)N2CCN(Cc3c(C)cc(C)cc3C)CC2)c(C)c1 (stereo not shown) [Example 239, 2-[2-[(4-Methoxy-2,6-dimethyl-phenyl)sulfonyl]-1,2,3,4-tetrahydro-pyrrolo[1,2-a]pyrazin-1-yl]-1-[4-[(2,4,6-trimethyl-phenyl)-methyl]-piperazin-1-yl]-ethanone]	-8.74%
COc1cc(C)c(S(=O)(=O)N2CCn3cccc3C2CC(=O)N2CCN(Cc3ccc(Cl)cc3)CC2)c(C)c1 (stereo not shown) [Example 240, 1-[4-[(4-Chlorophenyl)-methyl]-piperazin-1-yl]-2-[2-[(4-methoxy-2,6-dimethyl-phenyl)sulfonyl]-1,2,3,4-tetrahydro-pyrrolo[1,2-a]pyrazin-1-yl]-ethanone]	55.9%
COc1cc(C)c(S(=O)(=O)N2CCn3cccc3C2CC(=O)N2CCN(Cc3ccc(C)cc3)CC2)c(C)c1 (stereo not shown) [Example 241, 2-[2-[(4-Methoxy-2,6-dimethyl-phenyl)sulfonyl]-1,2,3,4-tetrahydro-pyrrolo[1,2-a]pyrazin-1-yl]-1-[4-(p-tolyl-methyl)-piperazin-1-yl]-ethanone]	46.8%
COc1ccc(CN2CCN(C(=O)CC3c4cccn4CCN3S(=O)(=O)c3c(C)cc(OC)cc3C)CC2)cc1 (stereo not shown) [Example 242, 2-[2-[(4-Methoxy-2,6-dimethyl-phenyl)sulfonyl]-1,2,3,4-tetrahydro-pyrrolo[1,2-a]pyrazin-1-yl]-1-[4-[(4-methoxyphenyl)-methyl]-piperazin-1-yl]-ethanone]	8.4%
COc1cc(C)c(S(=O)(=O)N2CCn3cccc3C2CC(=O)N2CCN(Cc3ccccc3F)CC2)c(C)c1 (stereo not shown) [Example 243, 1-[4-[(2-Fluorophenyl)-methyl]-piperazin-1-yl]-2-[2-[(4-methoxy-2,6-dimethyl-phenyl)sulfonyl]-1,2,3,4-tetrahydro-pyrrolo[1,2-a]pyrazin-1-yl]-ethanone]	29.4%
COc1cc(C)c(S(=O)(=O)N2CCn3cccc3C2CC(=O)N2CCCCC2Cc2ccccn2)c(C)c1 (stereo not shown) [Example 244, 2-[2-[(4-Methoxy-2,6-dimethyl-phenyl)sulfonyl]-1,2,3,4-tetrahydro-pyrrolo[1,2-a]pyrazin-1-yl]-1-[2-(pyridin-2-yl-methyl)-piperidin-1-yl]-ethanone]	-37.6%
COc1cc(C)c(S(=O)(=O)N2CCn3cccc3C2CC(=O)N2CCCCC2Cc2ccncc2)c(C)c1 (stereo not shown) [Example 245, 2-[2-[(4-Methoxy-2,6-dimethyl-phenyl)sulfonyl]-1,2,3,4-tetrahydro-pyrrolo[1,2-a]pyrazin-1-yl]-1-[2-(pyridin-4-yl-methyl)-piperidin-1-yl]-ethanone]	-21.5%
COc1cc(C)c(S(=O)(=O)N2CCn3cccc3C2CC(=O)N2CCN(Cc3ccc4c(c3)OCO4)CC2)c(C)c1 (stereo not shown) [Example 246, 1-[4-(1,3-Benzodioxol-5-yl-methyl)-piperazin-1-yl]-2-[2-[(4-methoxy-2,6-dimethyl-phenyl)sulfonyl]-1,2,3,4-tetrahydro-pyrrolo[1,2-a]pyrazin-1-yl]-ethanone]	6.85%
COc1cc(C)c(S(=O)(=O)N2CCn3cccc3C2CC(=O)N2CCN(CCC#N)CC2)c(C)c1 (stereo not shown) [Example 247, 3-[4-[2-[2-[(4-Methoxy-2,6-dimethyl-phenyl)sulfonyl]-1,2,3,4-tetrahydro-pyrrolo[1,2-a]pyrazin-1-yl]-acetyl]-piperazin-1-yl]-propionitrile]	-27.4%
COc1cc(C)c(S(=O)(=O)N2CCn3cccc3C2CC(=O)NCC2CCCN(Cc3ccccc3)C2)c(C)c1 (stereo not shown) [Example 248, N-[(1-Benzyl-piperidin-3-yl)-methyl]-2-[2-[(4-methoxy-2,6-dimethyl-phenyl)sulfonyl]-1,2,3,4-tetrahydro-pyrrolo[1,2-a]pyrazin-1-yl]-acetamide]	84%

Further lines, results first:

inhibition at 10 µM	Compound
-12.6%	Cc1cccc(Cl)c1S(=O)(=O)N1CCn2cccc2C1CC(=O)N1CCN(Cc2ccc(Cl)cc2)CC1 (stereo not shown) [Example 249, 2-[2-[(2-Chloro-6-methyl-phenyl)sulfonyl]-1,2,3,4-tetrahydro-pyrrolo[1,2-a]pyrazin-1-yl]-1-[4-[(4-chlorophenyl)-methyl]-piperazin-1-yl]-ethanone]
-38%	Cc1cccc(Cl)c1S(=O)(=O)N1CCn2cccc2C1CC(=O)N1CCCCC1Cc1ccccn1 (stereo not shown) [Example 250, 2-[2-[(2-Chloro-6-methyl-phenyl)sulfonyl]-1,2,3,4-tetrahydro-pyrrolo[1,2-a]pyrazin-1-yl]-1-[2-(pyridin-2-yl-methyl)-piperidin-1-yl]-ethanone]
-37.1%	Cc1cccc(Cl)c1S(=O)(=O)N1CCn2cccc2C1CC(=O)N1CCCCC1Cc1ccncc1 (stereo not shown) [Example 251, 2-[2-[(2-Chloro-6-methyl-phenyl)sulfonyl]-1,2,3,4-tetrahydro-pyrrolo[1,2-a]pyrazin-1-yl]-1-[2-(pyridin-4-yl-methyl)-piperidin-1-yl]-ethanone]
-10.5%	Cc1cccc(Cl)c1S(=O)(=O)N1CCn2cccc2C1CC(=O)N1CCN(Cc2ccc3c(c2)OCO3)CC1 (stereo not shown) [Example 252, 1-[4-(1,3-Benzodioxol-5-yl-methyl)-piperazin-1-yl]-2-[2-[(2-chloro-6-methyl-phenyl)sulfonyl]-1,2,3,4-tetrahydro-pyrrolo[1,2-a]pyrazin-1-yl]-ethanone]
-39.1%	Cc1cccc(Cl)c1S(=O)(=O)N1CCn2cccc2C1CC(=O)N1CCN(CCC#N)CC1 (stereo not shown) [Example 253, 3-[4-[2-[2-[(2-Chloro-6-methyl-phenyl)sulfonyl]-1,2,3,4-tetrahydro-pyrrolo[1,2-a]pyrazin-1-yl]-acetyl]-piperazin-1-yl]-propionitrile]
8.85%	O=C(CC1c2cccn2CCN1S(=O)(=O)c1ccc(C(F)(F)F)cc1Cl)NCC1CCCN(Cc2ccccc2)C1 (stereo not shown) [Example 254, N-[(1-Benzyl-piperidin-3-yl)-methyl]-2-[2-[[2-chloro-4-(trifluoromethyl)-phenyl]sulfonyl]-1,2,3,4-tetrahydro-pyrrolo[1,2-a]pyrazin-1-yl]-acetamide]
-7.23%	COc1cc(C)c(S(=O)(=O)N2CCn3cccc3C2CC(=O)N2CCCCCC2c2ccc(N(C)C)cc2)c(C)c1 (stereo not shown) [Example 255, 1-[2-(4-Dimethylaminophenyl)-azepan-1-yl]-2-[2-[(4-methoxy-2,6-dimethyl-phenyl)sulfonyl]-1,2,3,4-tetrahydro-pyrrolo[1,2-a]pyrazin-1-yl]-ethanone]
5.54%	COc1cc(C)c(S(=O)(=O)N2CCn3cccc3C2CC(=O)N(C)C(CN2CCOCC2)c2ccccc2)c(C)c1 (stereo not shown) [Example 256, 2-[2-[(4-Methoxy-2,6-dimethyl-phenyl)sulfonyl]-1,2,3,4-tetrahydro-pyrrolo[1,2-a]pyrazin-1-yl]-N-methyl-N-(2-morpholin-4-yl-1-phenyl-ethyl)-acetamide]
75.5%	COc1cc(C)c(S(=O)(=O)N2CCn3cccc3C2CC(=O)N2CCC(Cc3ccccc3)CC2)c(C)c1 (stereo not shown) [Example 257, 1-(4-Benzyl-piperidin-1-yl)-2-[2-[(4-methoxy-2,6-dimethyl-phenyl)sulfonyl]-1,2,3,4-tetrahydro-pyrrolo[1,2-a]pyrazin-1-yl]-ethanone]
9.05%	COc1cc(C)c(S(=O)(=O)N2CCn3cccc3C2CC(=O)N2CCN(CCO)CC2)c(C)c1 (stereo not shown) [Example 258, 1-[4-(2-Hydroxy-ethyl)-piperazin-1-yl]-2-[2-[(4-methoxy-2,6-dimethyl-phenyl)sulfonyl]-1,2,3,4-tetrahydro-pyrrolo[1,2-a]pyrazin-1-yl]-ethanone]
